Results: patent US20030162796A1, “Pharmaceutical composition for the treatment of disorders of non-human mammals” (priority 2001, published 2003)
Like-named read-outs stand apart in the source and are kept apart here.

Experiments:
SLU-4 cells = test: 3H-Thymidin proliferation assay, SLU-4; format: cell-based, canine; conditions: inhibitor 5 nM-10000 nM
Method: (§1) The ability of BIBX1382 to inhibit the proliferation of cells in culture was tested with a ^3H-Thymidin proliferation assays. This assay was performed with three tumor cell lines (SLU-1, SLU-4, SH1b) and a normal cell line (CRL-6234).
(§2) A pilot experiment with 500 to 12.000 cells per well in a 96-well plate in the presence of different concentrations of FCS (0% to 10%) was performed. After different proliferation times (24 h, 48 h, 72 h and 96 h), 10 μl ^3H-Thymidin (1:100 in PBS) were added, after incubation the plate was frozen, then thawed and the cells were harvested. The ^3H-Thymidin incorporation rate was determined. […] To determine a possible growth inhibitory effect of the inhibitor BIBX1382 on the cell lines, different concentrations (5 nM-10000 nM) of the inhibitor were used. Again ^3H-Thymidin was added, after incubation the plate was frozen, then thawed and the cells were harvested. The ^3H-Thymidin incorporation rate was determined in dependance of the concentration of inhibitor.

[1] = Plasma levels of BIBX1382 of the treated mice; format: in vivo, nude mice; conditions: for concentration at 2 h / concentration at 6 h / concentration at 24 h: nude, mouse, plasma, oral, read-out: plasma level, mean; for concentration at 2 h: 2 h after last compound administration on day 46; for concentration at 6 h: 6 h after last compound administration on day 46; for concentration at 24 h: 24 h after last compound administration on day 46
Method: (§3) When tumors were established and had reached diameters of approximately 5 mm as measured with a calliper, mice were randomly distributed into groups of 10 animals so that each tumor size was equally represented in each treatment group. The time span between cell injection and randomisation/start of treatment was sixteen days. Starting ten days after randomisation, mice were treated once daily (at 24 hour intervals) with various doses of the test compound. Administration was intragastral using a gavage needle (Infusionskanule Olive A, Acufirm, No. 14 64 11-1). Therefore, the compound was suspended in 2.5% aqueous HP-beta-CD (hydroxy-propyl-beta-cyclodextrine)/1% aqueous Natrosol (hydroxyethylcellulose). Control mice received the vehicle only. The administration volume was 2.5 to 10 ml per kg mouse body weight. The solutions were proportioned and kept at −20° C.
(§4) The low dose group received 25 mg/kg/day (day 10-22) and 50 mg/kg/day (day 23-46) of BIBX1382; whereas the high dose group received 50 mg/kg/day (day 10-22), 70 mg/kg/day (day 23-30) and 100 mg/kg/day (day 31-46) of BIBX1382. The control group was treated with vehicle only.
With plasma levels of […] at 2 hours after oral compound administration a reduction of the growth rate to a T/C value of 62% was achieved.

SH1b cells = test: 3H-Thymidin proliferation assay, SH1b; format: cell-based, canine; conditions: FIG. 3
Method: as §1, §2
The ^3H-Thymidin proliferation assay was also done with the tumor cell line SH1b.

SLU-1 tumors = test: Effect on tumor growth in nude mice (SLU-1 subcutaneous xenograft); format: in vivo
Method: The cell line SLU-1 was cultured as described in Example 2. For use in tumor experiments, cells were trypsinised, washed and suspended in PBS+5% FCS at 10^7 cells/ml. 2×10^6 SLU-1 cells were injected into 40 nude mice (5-10 week-old female Hsd:NMRI-nu/nu purchased from Harlan, The Netherlands for the in vivo experiment with BIBX1382.
as §3, §4
Tumors were measured three times a week (Monday, Wednesday and Friday) with a calliper. Volumes [in mm^3] were then calculated according to the formula (tumor volume=length*diameter^2*π/6). To monitor side effects of treatment, mice were inspected daily for abnormalities and weighed three times (Monday, Wednesday and Friday) a week.
Tumor volumes were expressed as mean absolute tumor volumes [in mm^3] and plotted over days of treatment.
The specific relative tumor volumes (T/C [%], i.e. the mean relative tumor volumes of groups of compound-treated tumors in % of the mean relative tumor volume of the vehicle-treated control tumors: T/C [%]=100*mean Vrel compound-treated/mean Vrel vehicle-treated) were determined on the day following the final day of treatment.
Experiments were usually terminated when vehicle control mice had to be killed because of large tumor sizes (1200 to 1700 mm^3).

CRL-6234 cells = test: 3H-Thymidin proliferation assay, CRL-6234 (normal cell line); format: cell-based, canine
Method: as §1, §2

SLU-1 cells = test: 3H-Thymidin proliferation assay, SLU-1; format: cell-based, canine; conditions: inhibitor 5 nM-10000 nM
Method: as §1, §2

CN1CCC(Nc2ncc3ncnc(Nc4ccc(F)c(Cl)c4)c3n2)CC1 [BIBX1382, 4-((3-chloro-4-fluoro-phenyl)amino)-6-(1-methyl-4-piperidinyl-amino)-pyrimido(5,4d)pyrimidine]
proliferation rate (3H-Thymidin incorporation) (SLU-4 cells): not affected | plasma level ([1]; 2 hours after oral compound administration, level giving T/C 38%): approximately 4000 mmol/l | concentration at 2 h ([1]; 50 mg/kg): 3.17 µM | concentration at 6 h ([1]; 50 mg/kg): 2.85 µM | concentration at 24 h ([1]; 50 mg/kg): 0.394 µM | concentration at 2 h ([1]; 100 mg/kg): 4.16 µM | concentration at 6 h ([1]; 100 mg/kg): 4.09 µM | concentration at 24 h ([1]; 100 mg/kg): 0.591 µM | proliferation (3H-Thymidin incorporation) (SH1b cells): inhibited in its proliferation time | SLU-1 tumor growth (SLU-1 tumors; all tested doses, oral once daily, FIGS. 4 and 5): influenced SLU-1 tumor growth at all tested doses | T/C values compared to the vehicle control group (standard T-test) (SLU-1 tumors; both dose groups (low and high)): significantly lower | T/C (SLU-1 tumors; high dose group (Group 2), 50 → 70 → 100 mg/kg/day, after 100 mg/kg/day (day 31-46), day 47): 38% | T/C (SLU-1 tumors; high dose group after 50 mg/kg/day (day 10-22)): 52% | T/C (SLU-1 tumors; high dose group after 70 mg/kg/day (day 23-30)): 53% | increase in tumor size at maximum (SLU-1 tumors; high dose group, 50 mg/kg/day, day 10-22, all ten tumors): 5-6 fold | increase in tumor size (SLU-1 tumors; high dose group, 70 mg/kg/day, day 23-30): about 2 fold | increase in tumor size (SLU-1 tumors; high dose group, 100 mg/kg/day, day 31-46): 1.5-1.9 fold | increase in tumor size on average (SLU-1 tumors; high dose group, whole period of treatment): 20 fold | T/C (SLU-1 tumors; low dose group (Group 1), 25 → 50 mg/kg/day, after 50 mg/kg/day (day 23-46), day 47): 62% | T/C (SLU-1 tumors; low dose group after 25 mg/kg/day (day 10-22)): 78% | increase in tumor size (SLU-1 tumors; low dose group, 25 mg/kg/day, day 10-22, 9 of 10 tumors): 8 fold | tumor volume change (SLU-1 tumors; low dose group, 25 mg/kg/day, day 10-22, one of 10 tumors): did not change at all | increase in tumor size (SLU-1 tumors; low dose group, 50 mg/kg/day, day 23-46, all 10 tumors): 3-6 fold | increase in tumor size on average (SLU-1 tumors; low dose group, whole period of treatment (day 10-46)): 35 fold | effect on normal cell line at high concentrations (CRL-6234 cells; high concentrations): toxic effects at high concentrations | proliferation at lower concentration (CRL-6234 cells; lower concentration): not inhibited | proliferation rate (3H-Thymidin incorporation) (SLU-1 cells): inhibited in their proliferation rate
